The target in assay [1] is Estrogen receptor beta (Homo sapiens, UniProt Q92731). The assay can be described thus: Inhibition of estrogen receptor beta.
Assay [2] concerns the target T1, Estrogen receptor (Homo sapiens, UniProt P03372).
T1 sequence (P03372 whole entry): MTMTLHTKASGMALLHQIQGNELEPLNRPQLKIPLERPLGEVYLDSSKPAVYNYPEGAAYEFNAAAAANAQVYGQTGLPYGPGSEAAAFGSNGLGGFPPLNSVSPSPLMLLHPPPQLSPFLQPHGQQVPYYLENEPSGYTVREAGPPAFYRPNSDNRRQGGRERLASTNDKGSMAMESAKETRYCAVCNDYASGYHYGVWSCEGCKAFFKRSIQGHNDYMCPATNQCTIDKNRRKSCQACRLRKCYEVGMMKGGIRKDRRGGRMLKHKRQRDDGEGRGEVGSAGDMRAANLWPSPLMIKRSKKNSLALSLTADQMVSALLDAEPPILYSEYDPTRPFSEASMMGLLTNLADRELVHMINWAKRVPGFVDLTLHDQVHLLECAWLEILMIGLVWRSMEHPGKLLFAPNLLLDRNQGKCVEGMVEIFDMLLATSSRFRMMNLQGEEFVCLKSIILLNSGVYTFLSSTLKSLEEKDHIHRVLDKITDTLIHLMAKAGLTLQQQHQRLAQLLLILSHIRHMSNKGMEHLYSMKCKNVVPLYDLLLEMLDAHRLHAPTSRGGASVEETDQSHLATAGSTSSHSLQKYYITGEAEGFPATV
Description: Inhibition of estrogen receptor alpha

For assay [3], the target named is T2, Estrogen receptor (Mus musculus) (UniProt P19785).
T2 sequence (whole entry): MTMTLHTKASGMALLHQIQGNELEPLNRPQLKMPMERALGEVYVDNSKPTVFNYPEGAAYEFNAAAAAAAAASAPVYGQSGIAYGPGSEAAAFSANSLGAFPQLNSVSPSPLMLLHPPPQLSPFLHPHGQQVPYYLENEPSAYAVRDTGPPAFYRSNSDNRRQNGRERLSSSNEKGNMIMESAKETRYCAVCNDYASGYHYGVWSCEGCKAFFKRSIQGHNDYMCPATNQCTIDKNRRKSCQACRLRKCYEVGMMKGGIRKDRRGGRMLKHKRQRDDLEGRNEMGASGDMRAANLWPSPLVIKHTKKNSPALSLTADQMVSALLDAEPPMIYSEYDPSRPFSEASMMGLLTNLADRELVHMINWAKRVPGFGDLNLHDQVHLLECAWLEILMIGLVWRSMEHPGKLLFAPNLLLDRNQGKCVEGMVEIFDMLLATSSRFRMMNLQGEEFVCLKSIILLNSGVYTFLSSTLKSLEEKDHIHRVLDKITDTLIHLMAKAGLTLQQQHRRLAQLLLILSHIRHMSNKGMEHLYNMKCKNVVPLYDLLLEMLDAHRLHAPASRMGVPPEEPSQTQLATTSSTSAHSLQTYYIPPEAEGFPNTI
Description: Bone mineral density of compound was determined in vivo against estrogen receptor alpha

For assay [4], the target named is T2, Estrogen receptor (Mus musculus). The conditions noted are these: Uterus.
Description: Uterine weight assay of compound was determined in vivo against estrogen receptor alpha

Sequence of Estrogen receptor beta (Q92731 whole entry): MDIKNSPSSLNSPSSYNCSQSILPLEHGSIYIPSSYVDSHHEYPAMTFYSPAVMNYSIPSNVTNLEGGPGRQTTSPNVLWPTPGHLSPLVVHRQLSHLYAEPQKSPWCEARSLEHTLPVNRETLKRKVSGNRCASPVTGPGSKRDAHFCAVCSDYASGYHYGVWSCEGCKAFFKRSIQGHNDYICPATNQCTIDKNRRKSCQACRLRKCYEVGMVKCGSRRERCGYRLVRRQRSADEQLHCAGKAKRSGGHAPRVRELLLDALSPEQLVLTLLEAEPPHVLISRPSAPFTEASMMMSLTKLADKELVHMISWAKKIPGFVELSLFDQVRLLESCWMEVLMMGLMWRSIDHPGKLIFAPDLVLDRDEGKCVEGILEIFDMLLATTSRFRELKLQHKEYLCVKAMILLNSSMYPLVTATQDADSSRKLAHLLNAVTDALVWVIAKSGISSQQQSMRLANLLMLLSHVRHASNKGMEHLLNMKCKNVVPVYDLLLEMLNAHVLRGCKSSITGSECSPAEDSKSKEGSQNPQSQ

For the compound `O=C(c1ccc(N2CCN(C(=O)c3ccc([N+](=O)[O-])cc3)CC2)cc1)c1c(-c2ccc(O)cc2)sc2cc(O)ccc12`, the results for the IC50 in assay [1] and in assay [2] were 1.27 nM and 2.15 nM, respectively.
In the case of `O=C(c1ccc(N2CCN(C(=O)c3cccc(Cl)c3)CC2)cc1)c1c(-c2ccc(O)cc2)sc2cc(O)ccc12`, the results for the concentration for half-maximal inhibition (IC50) in assay [1] and in assay [2] were 3.7 nM and 0.46 nM, respectively. For the same compound, in assay [3], the Bone mineral density came to 432 mg/cubic cm. For the same compound, the Uterine weight in assay [4] was 29.3 mg.
Take `O=C(c1ccc(N2CCN(Cc3ccc([N+](=O)[O-])cc3)CC2)cc1)c1c(-c2ccc(O)cc2)sc2cc(O)ccc12`: 14.2 nM corresponded to half-maximal inhibition in assay [1] (IC50).
On to `O=C(c1ccc(N2CCN(C(=O)c3ccc(Cl)cc3)CC2)cc1)c1c(-c2ccc(O)cc2)sc2cc(O)ccc12`, for which the figures for the IC50 in assay [1] and in assay [2] were 4.02 nM and 0.78 nM, respectively.
With `O=C(c1ccc(N2CCN(C(=O)c3ccccc3O)CC2)cc1)c1c(-c2ccc(O)cc2)sc2cc(O)ccc12`, the IC50 in assay [1] was found to be 7.92 nM; in assay [2], 3.05 nM.
`Cc1ccccc1C(=O)N1CCN(c2ccc(C(=O)c3c(-c4ccc(O)cc4)sc4cc(O)ccc34)cc2)CC1`: the IC50 in assay [1] amounted to 17.7 nM; in assay [2], 3.94 nM.
Taken in the same sequence, the figures for `O=C(c1ccc(N2CCN(C(=O)c3ccccc3[N+](=O)[O-])CC2)cc1)c1c(-c2ccc(O)cc2)sc2cc(O)ccc12` were 12.9 nM and 3.58 nM.
Taken in the same sequence, the figures for `Cc1ccc(C(=O)N2CCN(c3ccc(C(=O)c4c(-c5ccc(O)cc5)sc5cc(O)ccc45)cc3)CC2)cc1` were 4.94 nM and 2.74 nM.
As for `O=C(c1ccc(N2CCN(C(=O)c3ccccc3Cl)CC2)cc1)c1c(-c2ccc(O)cc2)sc2cc(O)ccc12`, the results for the IC50 in assay [1] and in assay [2] were 3.21 nM and 1.72 nM, respectively.
For the compound `CC(C)N1CCN(c2ccc(C(=O)c3c(-c4ccc(O)cc4)sc4cc(O)ccc34)cc2)CC1`, the IC50 in assay [1] was 33.9 nM; in assay [2], 0.28 nM. The same compound had a Bone mineral density in assay [3] of 541 mg/cubic cm. Besides, the Uterine weight in assay [4] was found to be 38.8 mg.
Consider `O=C(c1ccc(N2CCN(C(=O)c3cccc(O)c3)CC2)cc1)c1c(-c2ccc(O)cc2)sc2cc(O)ccc12`, for which the IC50 was 19.8 nM in assay [1] and 1.39 nM in assay [2].
Turning to `O=C(c1ccc(N2CCN(Cc3ccccc3)CC2)cc1)c1c(-c2ccc(O)cc2)sc2cc(O)ccc12`, the results for the IC50 in assay [1] and in assay [2] were 5.53 nM and 0.97 nM, respectively.
`O=C(c1ccc(N2CCN(C(=O)c3ccccc3)CC2)cc1)c1c(-c2ccc(O)cc2)sc2cc(O)ccc12`: the IC50 is 25.3 nM in assay [1] and 0.86 nM in assay [2].
On to `O=C(c1ccc(N2CCN(C3CCCC3)CC2)cc1)c1c(-c2ccc(O)cc2)sc2cc(O)ccc12`, for which the figures for the IC50 in assay [1] and in assay [2] were 18.1 nM and 1.08 nM, respectively.
On to `O=C(c1ccc(N2CCN(c3ccc(Cl)cc3)CC2)cc1)c1c(-c2ccc(O)cc2)sc2cc(O)ccc12`, for which the results for the IC50 in assay [1] and in assay [2] were 9.07 nM and 0.22 nM, respectively. This compound gave a Bone mineral density in assay [3] of 482 mg/cubic cm. In assay [4], this compound gave a Uterine weight of 30.5 mg.
In the case of `Cc1cccc(C(=O)N2CCN(c3ccc(C(=O)c4c(-c5ccc(O)cc5)sc5cc(O)ccc45)cc3)CC2)c1`, the figures for the half-inhibitory concentration (IC50) in assay [1] and in assay [2] were 12.5 nM and 0.27 nM, respectively.
With `O=C(c1ccc(N2CCN(C(=O)c3ccncc3)CC2)cc1)c1c(-c2ccc(O)cc2)sc2cc(O)ccc12`, the IC50 in assay [1] was 93.6 nM; in assay [2] it was 14.5 nM.
On the same counts, the results for `CCCN1CCN(c2ccc(C(=O)c3c(-c4ccc(O)cc4)sc4cc(O)ccc34)cc2)CC1` are 29.4 nM and 1.43 nM.
For the compound `O=C(c1ccc(N2CCN(C(=O)c3ccco3)CC2)cc1)c1c(-c2ccc(O)cc2)sc2cc(O)ccc12`, the IC50 in assay [1] worked out at 20.1 nM; in assay [2] it was 2.65 nM.
On the same counts, the results for `Cc1cc(C)nc(N2CCN(c3ccc(C(=O)c4c(-c5ccc(O)cc5)sc5cc(O)ccc45)cc3)CC2)n1` are 66.5 nM and 2.12 nM.

The term IC50 denotes the point on the concentration scale where inhibition reaches its midpoint. Higher therefore signals weaker potency in that assay.

(Values after ChEMBL document CHEMBL1141904, “Benzothiophenes containing a piperazine side chain as selective ligands for the estrogen receptor alpha and their bioactivities in vivo” (Bioorg Med Chem Lett, 2005).)
